Test results reported in ChEMBL document CHEMBL1201862, “PubChem BioAssay data set” (2004).
The source made the active and inactive calls.

What was measured:
Cytochrome P450 1A2 = molecular target: T1, Cytochrome P450 1A2 (Homo sapiens, UniProt P05177);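 note: PubChem cytochrome P450 panel assay, CYP1A2 panel member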
T1 sequence (P05177 whole entry): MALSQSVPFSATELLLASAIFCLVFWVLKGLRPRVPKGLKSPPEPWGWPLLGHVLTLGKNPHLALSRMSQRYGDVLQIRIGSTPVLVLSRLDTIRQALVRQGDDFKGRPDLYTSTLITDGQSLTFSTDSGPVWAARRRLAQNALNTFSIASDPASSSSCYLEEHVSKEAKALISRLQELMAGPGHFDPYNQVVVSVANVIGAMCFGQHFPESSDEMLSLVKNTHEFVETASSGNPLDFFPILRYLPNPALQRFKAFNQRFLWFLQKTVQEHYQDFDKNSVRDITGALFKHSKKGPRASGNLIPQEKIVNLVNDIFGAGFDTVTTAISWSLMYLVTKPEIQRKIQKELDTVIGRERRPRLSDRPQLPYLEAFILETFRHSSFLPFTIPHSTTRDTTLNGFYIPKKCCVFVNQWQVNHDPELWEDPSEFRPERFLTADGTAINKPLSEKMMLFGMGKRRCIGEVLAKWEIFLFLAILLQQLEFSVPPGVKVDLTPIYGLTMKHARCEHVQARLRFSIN

Cytochrome P450 3A4 [1] = molecular target: T2, Cytochrome P450 3A4 (Homo sapiens, UniProt P08684)
Cytochrome P450 2D6 = Cytochrome P450 2D6 (Homo sapiens, UniProt P10635);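 note: CYP2D6 member of a cytochrome P450 panel assay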
HEK293 = assay: cells; assay type: functional, cell-based; details: Homo sapiens
[2] = molecular target: T3, Nuclear receptor subfamily 0 group B member 1 (Homo sapiens, UniProt P51843); assay: Luminescence-based cell-based high throughput dose response assay for inhibitors of the orphan nuclear receptor subfamily 0, group B, member 1 (DAX1; NR0B1). [Related pubchem assays (depositor defined):AID504766, AID504790]; assay type: functional
T3 sequence (P51843 whole entry): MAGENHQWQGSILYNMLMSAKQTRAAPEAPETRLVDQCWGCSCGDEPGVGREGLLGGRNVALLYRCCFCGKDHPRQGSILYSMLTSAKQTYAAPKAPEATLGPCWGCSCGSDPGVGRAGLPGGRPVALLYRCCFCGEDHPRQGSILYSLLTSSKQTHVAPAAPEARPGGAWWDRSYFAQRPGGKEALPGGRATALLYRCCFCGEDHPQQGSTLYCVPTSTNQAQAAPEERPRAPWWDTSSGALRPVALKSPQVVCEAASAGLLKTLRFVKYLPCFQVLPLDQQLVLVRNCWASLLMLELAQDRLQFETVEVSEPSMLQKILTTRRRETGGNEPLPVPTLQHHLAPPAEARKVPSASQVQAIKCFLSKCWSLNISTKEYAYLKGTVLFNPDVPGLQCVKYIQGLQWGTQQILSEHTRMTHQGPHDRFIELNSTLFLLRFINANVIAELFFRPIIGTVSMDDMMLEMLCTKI

Genome polyprotein = Genome polyprotein (dengue virus type 2, UniProt P29990); assay: flavivirus cap methylation enzyme inhibition – biochemical, confirmation dose response, primary screen (AID 588689); assay type: functional
[3] = molecular target: T4, E3 ubiquitin-protein ligase XIAP (Homo sapiens, UniProt P98170); assay: Counter Screen using XIAP-Bir3 for Chemical Antagonists of Bir1/2 domains of IAP-family anti-apoptotic proteins. [Related pubchem assays (depositor defined):AID1018, AID1449, AID1514, AID1638, AID1749, AID1750, AID488957, AID488963]
[4] = molecular target: T4, E3 ubiquitin-protein ligase XIAP; assay: small molecules displacing peptide from XIAP – biochemical, IAP family, fluorescence polarization (AID 1018); assay type: functional
[5] = molecular target: T5, Sphingosine 1-phosphate receptor 4 (Homo sapiens, UniProt O95977); assay: Fluorescence dose response cell-based high throughput screening assay for agonists of the Sphingosine 1-Phosphate Receptor 4 (S1P4). [Related pubchem assays: 1509 (Primary screen.), 1523 (Confirmation screen in triplicates.)]; assay type: functional
T5 sequence (O95977 whole entry): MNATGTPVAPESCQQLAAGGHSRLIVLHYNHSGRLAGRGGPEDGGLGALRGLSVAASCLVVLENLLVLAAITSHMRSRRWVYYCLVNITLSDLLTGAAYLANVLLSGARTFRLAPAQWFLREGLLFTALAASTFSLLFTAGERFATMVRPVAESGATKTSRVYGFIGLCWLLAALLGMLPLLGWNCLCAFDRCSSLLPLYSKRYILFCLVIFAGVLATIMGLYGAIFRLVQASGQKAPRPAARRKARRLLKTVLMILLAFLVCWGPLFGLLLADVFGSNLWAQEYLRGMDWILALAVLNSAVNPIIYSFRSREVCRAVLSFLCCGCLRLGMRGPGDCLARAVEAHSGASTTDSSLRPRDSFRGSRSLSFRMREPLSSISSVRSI

[6] = molecular target: Sphingosine 1-phosphate receptor 1 (Homo sapiens, UniProt P21453); assay: Fluorescence-based counterscreen assay for S1P4 agonists: Cell-based dose response high throughput screening assay to identify agonists of the Sphingosine 1-Phosphate Receptor 1 (S1P1). [Related pubchem assays (depositor defined):AID1509, AID1523, AID1801, AID463107, AID463118, AID463119, AID463122, AID463123, AID463129, AID463225, AID504400, AID504460]; assay type: functional
[7] = molecular target: Voltage-gated inwardly rectifying potassium channel KCNH2 (Homo sapiens, UniProt Q12809); details: Potency;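 note: confirmatory quantitative high-throughput screen measuring inhibition of hERG channel activity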
Cytochrome P450 3A4 [8] = molecular target: T2, Cytochrome P450 3A4; details: Potency

T2 sequence (P08684 whole entry): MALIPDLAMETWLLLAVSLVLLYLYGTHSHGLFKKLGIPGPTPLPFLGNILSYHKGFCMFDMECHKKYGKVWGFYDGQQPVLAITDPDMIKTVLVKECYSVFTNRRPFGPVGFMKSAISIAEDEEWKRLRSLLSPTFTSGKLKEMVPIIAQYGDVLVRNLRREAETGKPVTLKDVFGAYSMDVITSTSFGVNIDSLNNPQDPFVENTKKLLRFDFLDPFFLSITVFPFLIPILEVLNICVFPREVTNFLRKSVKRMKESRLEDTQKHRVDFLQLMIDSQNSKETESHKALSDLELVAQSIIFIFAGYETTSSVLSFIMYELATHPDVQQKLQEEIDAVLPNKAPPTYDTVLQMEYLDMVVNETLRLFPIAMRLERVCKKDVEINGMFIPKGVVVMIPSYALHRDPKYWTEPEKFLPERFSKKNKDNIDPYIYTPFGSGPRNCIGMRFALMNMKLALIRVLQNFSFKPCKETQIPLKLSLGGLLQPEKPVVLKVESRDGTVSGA
T4 sequence (P98170 whole entry): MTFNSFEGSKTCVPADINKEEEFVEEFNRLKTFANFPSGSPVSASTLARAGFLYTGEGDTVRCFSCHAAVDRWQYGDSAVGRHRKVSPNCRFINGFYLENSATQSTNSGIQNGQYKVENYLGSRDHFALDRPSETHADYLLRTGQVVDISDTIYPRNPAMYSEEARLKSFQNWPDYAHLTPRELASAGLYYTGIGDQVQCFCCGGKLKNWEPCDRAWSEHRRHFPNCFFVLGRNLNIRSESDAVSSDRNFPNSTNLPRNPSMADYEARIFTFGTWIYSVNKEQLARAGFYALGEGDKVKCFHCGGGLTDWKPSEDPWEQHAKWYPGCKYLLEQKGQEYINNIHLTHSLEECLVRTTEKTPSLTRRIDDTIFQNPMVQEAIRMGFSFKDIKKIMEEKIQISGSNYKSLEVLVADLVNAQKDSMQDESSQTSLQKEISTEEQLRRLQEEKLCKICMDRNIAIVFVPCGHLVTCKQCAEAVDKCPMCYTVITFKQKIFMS
Chain of Cytochrome P450 2D6 (P10635 whole entry): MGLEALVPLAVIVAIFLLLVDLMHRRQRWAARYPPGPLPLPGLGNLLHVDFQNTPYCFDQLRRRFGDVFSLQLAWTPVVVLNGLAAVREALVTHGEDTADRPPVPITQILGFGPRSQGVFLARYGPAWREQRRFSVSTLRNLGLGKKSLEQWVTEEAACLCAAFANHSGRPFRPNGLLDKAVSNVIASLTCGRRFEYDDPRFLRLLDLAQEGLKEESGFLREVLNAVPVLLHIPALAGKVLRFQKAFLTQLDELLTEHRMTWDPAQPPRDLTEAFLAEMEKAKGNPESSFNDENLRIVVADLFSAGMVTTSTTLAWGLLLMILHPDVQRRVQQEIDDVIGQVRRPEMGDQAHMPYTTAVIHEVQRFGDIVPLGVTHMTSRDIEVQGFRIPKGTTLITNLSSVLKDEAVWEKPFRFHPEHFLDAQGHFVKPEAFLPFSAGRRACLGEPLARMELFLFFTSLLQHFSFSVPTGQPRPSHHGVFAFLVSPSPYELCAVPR
Chain of Sphingosine 1-phosphate receptor 1 (P21453 whole entry): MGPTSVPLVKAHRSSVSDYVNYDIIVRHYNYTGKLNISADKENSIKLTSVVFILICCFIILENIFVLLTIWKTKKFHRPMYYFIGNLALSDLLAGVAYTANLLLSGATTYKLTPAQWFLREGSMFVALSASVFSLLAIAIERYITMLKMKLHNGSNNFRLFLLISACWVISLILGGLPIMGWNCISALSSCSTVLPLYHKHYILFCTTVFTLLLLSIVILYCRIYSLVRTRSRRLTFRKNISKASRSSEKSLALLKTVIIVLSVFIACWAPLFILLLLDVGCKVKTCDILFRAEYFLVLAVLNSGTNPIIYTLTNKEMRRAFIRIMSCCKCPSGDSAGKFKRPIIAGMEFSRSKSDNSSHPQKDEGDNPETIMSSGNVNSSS
Chain of Voltage-gated inwardly rectifying potassium channel KCNH2 (Q12809 whole entry): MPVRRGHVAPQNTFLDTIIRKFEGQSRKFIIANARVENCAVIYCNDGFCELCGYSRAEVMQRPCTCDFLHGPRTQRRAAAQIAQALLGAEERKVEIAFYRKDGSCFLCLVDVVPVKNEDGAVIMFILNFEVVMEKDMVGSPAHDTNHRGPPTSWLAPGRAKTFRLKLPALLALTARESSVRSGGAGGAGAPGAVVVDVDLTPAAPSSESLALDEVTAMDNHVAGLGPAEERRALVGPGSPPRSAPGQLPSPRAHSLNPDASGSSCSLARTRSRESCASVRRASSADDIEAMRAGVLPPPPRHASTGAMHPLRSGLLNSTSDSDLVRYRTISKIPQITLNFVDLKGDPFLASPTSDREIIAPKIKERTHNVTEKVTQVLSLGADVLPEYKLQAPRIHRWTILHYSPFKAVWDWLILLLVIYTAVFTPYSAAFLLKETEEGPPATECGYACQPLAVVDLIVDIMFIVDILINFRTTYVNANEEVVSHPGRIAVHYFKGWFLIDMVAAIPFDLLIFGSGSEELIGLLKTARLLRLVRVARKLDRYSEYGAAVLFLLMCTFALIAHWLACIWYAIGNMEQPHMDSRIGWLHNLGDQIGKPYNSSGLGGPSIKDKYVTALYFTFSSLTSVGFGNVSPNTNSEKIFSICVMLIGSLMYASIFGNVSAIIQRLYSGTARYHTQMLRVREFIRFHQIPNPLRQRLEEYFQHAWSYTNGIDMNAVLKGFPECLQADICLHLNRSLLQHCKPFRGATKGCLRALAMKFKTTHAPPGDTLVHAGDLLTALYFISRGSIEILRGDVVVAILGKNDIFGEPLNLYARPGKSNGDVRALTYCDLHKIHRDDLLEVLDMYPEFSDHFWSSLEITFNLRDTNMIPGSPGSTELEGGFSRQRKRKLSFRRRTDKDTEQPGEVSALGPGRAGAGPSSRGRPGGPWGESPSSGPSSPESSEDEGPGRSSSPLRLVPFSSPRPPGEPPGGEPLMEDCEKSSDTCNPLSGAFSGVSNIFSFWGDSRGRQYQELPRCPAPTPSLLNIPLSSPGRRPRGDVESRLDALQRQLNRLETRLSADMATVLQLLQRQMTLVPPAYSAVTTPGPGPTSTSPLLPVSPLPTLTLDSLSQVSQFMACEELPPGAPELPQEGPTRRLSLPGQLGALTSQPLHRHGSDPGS
Chain of Genome polyprotein (P29990 2492-3391 limits assumed): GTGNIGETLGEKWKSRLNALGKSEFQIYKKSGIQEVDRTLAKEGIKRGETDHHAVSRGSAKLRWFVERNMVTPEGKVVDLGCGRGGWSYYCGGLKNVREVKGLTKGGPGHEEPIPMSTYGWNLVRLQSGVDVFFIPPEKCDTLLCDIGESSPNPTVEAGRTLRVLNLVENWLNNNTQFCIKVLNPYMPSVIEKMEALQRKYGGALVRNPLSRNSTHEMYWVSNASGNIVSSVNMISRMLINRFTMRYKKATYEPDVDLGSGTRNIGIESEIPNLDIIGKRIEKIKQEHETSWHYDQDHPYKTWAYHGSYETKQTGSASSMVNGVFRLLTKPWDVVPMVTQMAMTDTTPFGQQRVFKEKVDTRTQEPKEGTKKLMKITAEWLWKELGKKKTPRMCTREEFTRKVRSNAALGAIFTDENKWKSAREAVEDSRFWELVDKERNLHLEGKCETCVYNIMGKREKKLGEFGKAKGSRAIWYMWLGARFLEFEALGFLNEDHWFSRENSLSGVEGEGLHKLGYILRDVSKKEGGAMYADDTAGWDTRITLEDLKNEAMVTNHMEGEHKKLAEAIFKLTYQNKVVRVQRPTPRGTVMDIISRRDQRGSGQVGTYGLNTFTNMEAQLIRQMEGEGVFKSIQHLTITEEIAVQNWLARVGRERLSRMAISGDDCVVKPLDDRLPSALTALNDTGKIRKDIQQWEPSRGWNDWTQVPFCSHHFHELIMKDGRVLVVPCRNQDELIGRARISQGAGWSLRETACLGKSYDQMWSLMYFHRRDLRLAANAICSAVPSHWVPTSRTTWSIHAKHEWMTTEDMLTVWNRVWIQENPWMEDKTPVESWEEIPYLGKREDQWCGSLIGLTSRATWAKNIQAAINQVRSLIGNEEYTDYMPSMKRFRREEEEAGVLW

Compound: O=C(Oc1ccccc1)N1CCC2(CC1)CCN(c1cccc(-c3ccccc3)c1)CC2
- AC50 (Cytochrome P450 1A2): 12.6 µM (inconclusive)
- AC50 (Cytochrome P450 3A4 [1]): inconclusive

Compound: CCc1c(C)[nH]c2c1C(=O)[C@H](CN1CCOCC1)CC2.Cl [MOLINDONE HYDROCHLORIDE]
- AC50 (Cytochrome P450 2D6): inactive

Compound: O=C(/C=C/c1ccc2c(c1)OCCO2)c1ccc(O)cc1
- IC50 (HEK293): > 2.5 µM (active)
- IC50 [2]: > 67.6 µM (inactive)

Compound: CCc1c(C)sc(NC(=O)OC)c1C(=O)N1CCCCC1
- IC50 (Genome polyprotein): > 100 µM (active)
- IC50 [3]: 54.6 µM (active)
- IC50 [4]: > 25 µM (not active)

Compound: COCCCNC(=O)c1ccc(CN2CCc3ccccc3C2)cc1
- IC50 (HEK293): > 67.5 µM (inactive)
- IC50 [2]: > 67.5 µM (inactive)

Compound: COc1cccc(CN2C(=O)N(C(C)C)C(N(O)C(=O)NC(C)C)C2(C)C)c1OC (stereo not given)
- AC50 (Cytochrome P450 2D6): inconclusive

Compound: Cc1cc(-n2c(=O)c(C#N)cc3c(=O)n4ccccc4nc32)no1
- EC50 [5]: 4.43 µM (active)
- EC50 [6]: 10.1 µM (inactive)

Compound: Nc1ccccc1C(=O)OCCc1ccccc1
- AC50 [7]: 39.8 µM (inconclusive)
- AC50 (Cytochrome P450 3A4 [8]): 12.6 µM (inconclusive)
